Assay results taken from publication PMC10761119, “Phosphorylation-state dependent intraneuronal sorting of Aβ differentially impairs autophagy and the endo-lysosomal system” (Autophagy, 2023).

Columns and labels:
primary cortical neurons [1] = test: Subcellular fractionation by differential centrifugation and Aβ ELISA; type: cell-based, mouse; settings: Aβ 500 nM, 4 h; for Aβ levels in the isolated membrane fraction (16,100 g pellet): ELISA 82E1, n = 6, N = 3
Protocol: [Worded in the source for another cell line; used here, by the source, with some conditions changed.] SH-SY5Y cells seeded on D1, were treated with Aβ variants (1 μM) on D3 in DMEM/F-12 media without serum and antibiotics. Control treatment included treatment with equal volume of 10 mM NaOH solution used for preparing the Aβ stock solutions, in respective cell culture medium. SH-SY5Y cells, after 16 h of transient expression of the reporter constructs, were treated with different Aβ variants, autophagy modulator substrates and respective controls in DMEM/F-12, FCS^− PS^− media for the mentioned time points. After treatment, cells were washed twice with PBS and with 0.025% trypsin-EDTA in PBS to get rid of cell bound Aβ, followed by subsequent washings with PBS again. Cells were either collected by scraping using a cell-scraper or fixed with 4% PFA-PBS for 15 min at RT, for further immunocytochemistry experiments. Collected treatment media was centrifuged at 1000 g for 5 min, pellet discarded and supernatant frozen at −20°C until further usage.
Cells were collected by scraping and mechanically homogenized in hypotonic D buffer (10 mM Tris-HCl, pH 7.4, 10 mM NaCl, 0.1 mM EGTA, 25 mM glycerol 2-phosphate, 1 mM DTT) containing protease and phosphatase inhibitors by repeated suspension through a 23 G × 1” needle. Post-nuclear supernatant (PNS) was collected by centrifugation of the mechanically homogenized cellular material at 2,000 g for 5 min. The pellet was the nuclear material. […] The nuclear fraction was the supernatant collected after centrifugation at 16,100 g for 15 min. The PNS collected from the first step was centrifuged at 16,100 g for 60 min, and supernatant was used as the crude cytosolic fraction. The pellet contained the membrane materials, which were re-homogenized in hypotonic D buffer and again centrifuged at 16,100 g for 60 min. The supernatant was discarded, pellet was resuspended in STEN-lysis buffer (20 mM Tris-HCl, pH 7.5, 150 mM NaCl, 1 mM EDTA, 1 mM EGTA, 1% Triton X-100, 2.5 mM sodium pyrophosphate [Sigma Aldrich, P1835], 1 mM β-glycerophosphate [Sigma Aldrich, G9422]) containing protease and phosphatase inhibitors, and the membrane fraction was the supernatant collected after centrifugation at 16,100 g for 15 min. The crude cytosolic fraction was then further fractionated at 100,000 g for 70 min at 4°C under vacuum. The resultant supernatant was the soluble cytosolic fraction. The pellet was resuspended in STEN lysis buffer and centrifuged at 16,100 g for 15 min. The resultant supernanant represented the insoluble cytosolic fraction.
Wells were further tapped dry and incubated with 4G8-biotin/82E1-biotin detection antibodies (0.05–0.1 μg/well) at RT for 2 h followed by subsequent washing and incubation with streptavidin conjugated HRP complex (1:5000) for another 2 h. Wells were then washed thoroughly four times and filled with 100 µl of 3,3,5,5-tetramethylbenzidine substrate (TMB; ThermoFisher Scientific, N301) in each well and incubated at 25°C until sufficient blue color developed (time ranged from 2–15 min depending on the different capture antibodies used in the experiment). 100 µl of stop solution (4 M H2SO4) was added to each well. Absorbance values from each well were read at a Tecan plate reader at a wavelength of 450 nm and background measurement at 620 nm. Multiple readings were recorded for a single well and averaged. In each experiment, each sample was analyzed in technical duplicate/triplicate wells as indicated and average values from an independent experiment are presented (Figures 1E, 3G, SA-D and Table S2).

primary cortical neurons [2] = test: Immunocytochemistry colocalization of internalized Aβ with vesicular markers (Mander's overlap coefficient); type: cell-based, mouse; settings: Aβ 500 nM, 4 h, mean ± S.D., n = 6, N = 3; for Mander's overlap coefficient, R, with EEA1-positive vesicles: Aβ stained with 82E1
SH-SY5Y cells = test: Number and perinuclear/peripheral positioning of LAMP2-positive compartments; type: cell-based, human; settings: Aβ 1 µM, 24 h
Protocol: Cells were cultured on glass coverslips and treated similarly as mentioned above. After treatment, cells were subsequently washed and fixed with 4% paraformaldehyde in PBS for 15 min. Cells were then permeabilized with 0.25% Triton X-100 in PBS for 1 min, followed by blocking with 2.5% BSA, 0.125% Triton X-100 in PBS. Incubation with primary antibodies (respective dilutions in blocking buffer) was performed overnight at 4°C. Next day, coverslips were washed and incubated with respective secondary antibodies (respective dilutions in blocking buffer) for 1 h at RT. Removal of the secondary antibody solution was followed by washes with PBS (thrice) and distilled water (once) and coverslips were mounted on the slides using ImmuMount (ThermoFisher Scientific – Shandon Epredia™, 9990412). For surface staining without permeabilization, Triton X-100 was not used in any solution during the staining procedure.
All images were processed and analyzed using Fiji ImageJ software. Mander’s overlap coefficient (Figure 1B–D; Figure 2B–F; Figure 4B–F; Figure 6E; S2B, D; S4B, D; S6D, F) analysis was done using the colocalization processing module of the Fiji ImageJ plugin. Distance from the plaque core (Figure 1B) was measured using the concentric circles plugin module. Fluorescence intensity of the green channel (Figure S3A-B), and the number of neurons positive for Aβ signals (Figure S3-D) were quantified using the processing module of Keyence software. […] Intensity of green and red channel for a particular ROI was calculated and ratios of the individual values were computed (Figure 6B and S7A). For computing the number of mCherry^+GFP^± vesicles or per cell (Figure 6D and S7B), cell outline was drawn manually and number of vesicles per cell (nucleus count – DAPI) was calculated. […] Due to slight variability in transfection efficiency or the number of cells in different experimental set-ups, the readings from each experiment were averaged and normalized to the control cells from that particular set. […]

amyloid-β phosphorylated at serine residue 8 [p-Ser8Aβ]
Aβ levels in the isolated membrane fraction (16,100 g pellet) (primary cortical neurons [1]): highest levels
Aβ levels in the 100,000 g pellet (insoluble cytosolic fraction) (primary cortical neurons [1]; ELISA, compared to npAβ and p-Ser26Aβ): significantly higher
Aβ levels in the 100,000 g supernatant (soluble cytosolic fraction) (primary cortical neurons [1]; ELISA, compared to p-Ser26Aβ): significantly lower
Mander's overlap coefficient, R, with EEA1-positive vesicles (primary cortical neurons [2]): 0.58 ± 0.18
Mander's overlap coefficient, R, with CTSD (primary cortical neurons [2]): 0.30 ± 0.06
Mander's overlap coefficient, R, with LAMP2 (primary cortical neurons [2]): 0.33 ± 0.08
Mander's overlap coefficient, R, with LC3-positive vesicles (primary cortical neurons [2]): 0.64 ± 0.21
Mander's overlap coefficient, R, with RAB7-positive late endosomes (primary cortical neurons [2]): 0.33 ± 0.05

amyloid-β phosphorylated at serine residue 26 [p-Ser26Aβ]
Aβ levels in the isolated membrane fraction (16,100 g pellet) (primary cortical neurons [1]): significantly lower
Aβ levels in the total cytosolic fraction (supernatant after 16,100 g spin) (primary cortical neurons [1]; ELISA, followed by p-Ser8Aβ and npAβ): highest levels
Mander's overlap coefficient, R, with EEA1-positive vesicles (primary cortical neurons [2]): 0.51 ± 0.14
Mander's overlap coefficient, R, with CTSD (primary cortical neurons [2]): 0.65 ± 0.10
Mander's overlap coefficient, R, with LAMP2 (primary cortical neurons [2]): 0.65 ± 0.13
Mander's overlap coefficient, R, with LC3-positive vesicles (primary cortical neurons [2]): 0.52 ± 0.09
Mander's overlap coefficient, R, with RAB7-positive late endosomes (primary cortical neurons [2]): 0.62 ± 0.15
Number of LAMP2-positive vesicles (SH-SY5Y cells): significantly increased

non-phosphorylated amyloid-β [npAβ, reference compound]
Aβ levels in the isolated membrane fraction (16,100 g pellet) (primary cortical neurons [1]): significantly lower
Mander's overlap coefficient, R, with EEA1-positive vesicles (primary cortical neurons [2]): 0.43 ± 0.15
Mander's overlap coefficient, R, with CTSD (primary cortical neurons [2]): 0.47 ± 0.09
Mander's overlap coefficient, R, with LAMP2 (primary cortical neurons [2]): 0.45 ± 0.12
Mander's overlap coefficient, R, with LC3-positive vesicles (primary cortical neurons [2]): 0.47 ± 0.09
Mander's overlap coefficient, R, with RAB7-positive late endosomes (primary cortical neurons [2]): 0.44 ± 0.10
Number of LAMP2-positive vesicles (SH-SY5Y cells): significantly increased
Ratio of perinuclear to peripheral lysosomes (SH-SY5Y cells; LAMP2-positive compartments, perinuclear <2 µm from nucleus, control 0.61 ± 0.12, n = 12, N = 3): 0.99 ± 0.16
